Tested on: SWISS mouse
Assay: convulsive crises induced by intraperitoneal pentylenetetrazole in the SWISS mouse
Type: in vivo
Conditions: given after pentylenetetrazole about 85 mg/kg i.p.
Method: During the first stages of the preparation and development of epileptic drugs it is necessary to generate experimental convulsive crises in an animal. The experimental convulsive crises make it possible to identify anticonvulsants, the anti-epileptic properties of which will be subsequently verified.
That is the reason why convulsive crises are induced in the SWISS mouse by the intraperitoneal injection of pentylenetetrazole at a dose of about 85 mg/kg.
Pentylenetetrazole is a bulbar excitant which, at this dose, causes convulsive crises in the mouse and the rabbit in a classical fashion with several well-characterized stages.
The subsequent intraperitoneal administration of the substance of formula I according to the invention brought about a suppression of these crises under the following conditions:
The subsequent intraperitoneal administration of N-γ-D-glutamyl-D-aspartic was also carried out and brought about the suppression of crises under the following conditions: […]

[1] = dose 285 nmol/kg intraperitoneal

For `N[C@H](CCC(=O)N[C@H](CC(=O)O)C(=O)O)C(=O)O` [N-γ-D-glutamyl-D-aspartic, N-γ-D-glutamyl-D-aspartic acid], the “suppression of crises, % of the animals” value (dose 71 nmol/kg intraperitoneal) was 40% and the “suppression of crises, % of the animals” value [1] was 60%.
For `N[C@@H](CCC(=O)N[C@@H](CC(=O)O)C(=O)O)C(=O)O` [formula I, N-γ-L-glutamyl-L-aspartate], the “suppression of crises, % of the animals” value (dose 142.5 nmol/kg intraperitoneal) was 50%, the “suppression of crises, % of the animals” value [1] was 50% and the “suppression of crises, % of the animals” value (dose 570 nmol/kg intraperitoneal) was 70%.

From patent US4975418A, “Therapeutically active compositions of pseudo-peptide of glutamyl-aspartic acid” (Centre National de la Recherche Scientific (CNRS), priority 1986, dated 1990)
